Laboratory results as given in US20070248581A1, “MGRA IS A REDOX REGULATOR OF ANTIBIOTIC SENSITIVITY AND VIRULENCE” (priority 2006, published 2007).
Converted amounts (≈) assume the structure as drawn.

Columns and labels:
[1] = test system: S. aureus strain Newman (wild-type); test: MIC measurement, susceptibility of wild-type strain to fluoroquinolones and vancomycin; format: cell-based; conditions: Staphylococcus aureus
Procedure: (§1) S. aureus cells were serially diluted and an equal number of cells was spotted on a plate containing various concentrations of antibiotics. The S. aureus strain Newman (wild-type) and the mutant strains mgrA- and mgrH1- (knock outs) were tested.

[2] = test system: S. aureus mgrA mutant (mgrA-) strain; test: MIC measurement, susceptibility of mgrA mutant strain to fluoroquinolones and vancomycin; format: cell-based; conditions: Staphylococcus aureus
Procedure: as §1

MgrA [3] = target: T1, MgrA (Staphylococcus aureus, UniProt Q99VT5); test: Alkylation of Cys12 in MgrA, DTNB assay for free thiol content; format: biochemical, S. aureus; parameters: His6 (N, cleaved yes); made in house; host or cells: E. coli BL21(DE3); conditions: 8 equivalents alkylator, 0.05 mM MgrA in water, pH 7.4, 1 h, r.t.
T1 sequence (Q99VT5 1-147): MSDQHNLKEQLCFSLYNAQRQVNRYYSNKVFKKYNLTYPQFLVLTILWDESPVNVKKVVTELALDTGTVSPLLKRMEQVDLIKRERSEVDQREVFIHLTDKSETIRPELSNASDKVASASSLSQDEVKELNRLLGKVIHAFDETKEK
Procedure: Alkylation of Cys12 in MgrA in vitro and in vivo. In a study to test potential alkylation of Cys12 in MgrA, the inventors examined several alkylators (1-7, Table 3). Eight equivalents of alkylators were used to react with 0.05 mM MgrA in water for 1 h at pH 7.4 at room temperature. Alkylation of Cys12 was determined by DTNB assay for free thiol content. […] Over 95% of cysteine thiols were alkylated by compound 7 after 1 h of reaction.

norA gene = test: qRT-PCR of norA gene activation; format: cell-based, S. aureus; conditions: Newman strain
Procedure: Lanes 1 and 2, purified MgrA (2 μM) with a 40 bp oligonucleotide (0.4 pmol) containing the MgrA binding sequence on the sarV promoter region; lanes 3 and 4, MgrA was treated with 100 equivalents of phenyl vinyl sulfone (7) for 30 min (lane 3) or 60 min (lane 4) before mixed with DNA and applied for the shift assay. FIGS. 13A-B: The Cys-alkylator phenyl vinyl sulfone (PVS) has similar effects on MgrA as hydrogen peroxide. (FIG. 13A) Treatment of the Newman strain with PVS turned on resistance of the pathogen towards vancomycin. (FIG. 13B) The norA gene is repressed by MgrA; however, treatment of the Newman strain with either H2O2 or PVS can turn on this gene.
Activation of MgrA by phenyl vinyl sulfone (PVS) inside S. aureus was tested. […] To further confirm the effect of PVS, the inventors monitored activation of the norA gene known to be repressed by MgrA. […] The next challenge is to develop vinyl sulfones that have high affinity and specificity toward MgrA. Of course, a non-covalent modulator that can activate MgrA with high sensitivity and specificity via direct binding is also highly desirable.

S. aureus Newman strain = test: Antibiotic sensitivity assay of S. aureus under oxidative stress or alkylator treatment; format: cell-based, Staphylococcus aureus
Procedure: The change of susceptibility levels of S. aureus strains toward ciprofloxacin and vancomycin under oxidative stress. The antibiotic resistance levels were tested in the absence (−H2O2) or presence (+H2O2) of 100 μM H2O2 by a plate sensitivity assay (FIG. 7A) and were also determined in the absence (−PQ) or presence (+PQ) of 25 μM paraquat by a 96-well-plate sensitivity assay (FIG. 7B). […] Empty bars are non-treated cultures. Results are mean ±s.d. from three independent experiments performed in duplicate.
Five strains were used to test oxidation responses in vivo: the wild-type Newman, the mgrA- mutant (knock out), the mgrA- mutant complemented with mgrA cloned in a plasmid pYJ335, the mgrA- mutant complemented with mgrAC12S in pYJ335, and the control mutant strain with pYJ335.
The susceptibility levels of all five strains toward CIP and VCM were also evaluated in the absence and presence of paraquat (PQ), another reagent known to cause oxidative stress in vivo (FIG. 7B).

MgrH1 = target: T2, MgrH1 (Staphylococcus aureus, UniProt Q2FVN3); conditions: 4 equiv oxidant, 10 min, r.t.
T2 sequence (Q2FVN3 1-148): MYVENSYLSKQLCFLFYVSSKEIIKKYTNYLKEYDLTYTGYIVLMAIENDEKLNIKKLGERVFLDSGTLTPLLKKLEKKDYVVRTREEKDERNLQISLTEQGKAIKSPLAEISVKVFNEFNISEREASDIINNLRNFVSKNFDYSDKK

splB gene = conditions: Newman strain, 0.4 mM, 30 min, qRT-PCR
Excerpt: (FIG. 10C) Monitoring in vivo effects of SarA oxidation by qRT-PCR.
The inventors also monitored activation of a virulence gene splB in S. aureus.

SarA = target: T3, SarA (Staphylococcus aureus, UniProt P0C1U6); test: Oxidation of Cys9 in SarA by oxidants; format: biochemical, S. aureus; conditions: 100 equiv oxidant, 30 min, r.t.
T3 construct: made in house
T3 sequence (P0C1U6 1-124): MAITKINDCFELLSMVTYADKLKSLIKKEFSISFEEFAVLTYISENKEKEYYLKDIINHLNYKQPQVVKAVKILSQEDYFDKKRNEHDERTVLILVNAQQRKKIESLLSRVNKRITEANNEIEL
Excerpt: SarA may adopt an oxidation sensing mechanism similar to MgrA. Cys9 in SarA might be oxidized by ROS or other reactive species which could lead to its dissociation from DNA and activation of the sarA regulon. To test this hypothesis, they cloned, expressed, and purified SarA.

MgrA [4] = target: T1, MgrA; conditions: 4 equiv oxidant, 10 min, r.t.
MgrA [5] = target: T1, MgrA; test: Binding assays of MgrA with antibiotics; parameters: His6 (N, cleaved yes); made in house; host or cells: E. coli BL21(DE3); species or system S. aureus
Excerpt: The regulation mechanism of MgrA. […] The inventors were very intrigued by what they had learned about MgrA: • i) MgrA is a DNA binding protein based on its structure and gel shift experiments. • ii) MgrA regulates S. aureus responses to fluoroquinolones (CIP and NOR, FIG. 1), vancomycin, and oxacillin (data not shown). […] Therefore, MgrA must sense some other host or environmental signals. The mechanistic issue for MgrA frustrated the inventors after they obtained the first crystal structure of this protein. Numerous binding assays were peformed to test a variety of hypotheses. A breakthrough came from a careful inspection of the MgrA structure and its sequence, when it was noticed that there is only one Cys residue present in the entire MgrA sequence, at position 12. This Cys residue, located in the N-terminal α1, is precisely in the dimerization domain (FIG. 4A) and seems to play an important role in orienting the MgrA dimer conformation. Each monomer presents its Cys12 to be recognized through hydrogen bonding to Ser113 and Tyr38 from the other monomer (FIG. 4B).

## O=C(O)c1cn(C2CC2)c2cc(N3CCNCC3)c(F)cc2c1=O [CIP, ciprofloxacin]
[1]
  MIC: 0.35 µg/mL (≈ 1.06 µM)
[2]
  MIC: 0.7 µg/mL (≈ 2.11 µM)

## CCOC(=O)CI [Compound 2]
MgrA [3]
  Alkylation percentage (Cys12 of MgrA): >95%

## O=C(CI)c1ccccc1 [Compound 3]
MgrA [3]
  Alkylation percentage (Cys12 of MgrA): >95%

## O=C1C=CC(=O)N1 [Compound 4]
MgrA [3]
  Alkylation percentage (Cys12 of MgrA): >95%

## c1ccc(OCC2CO2)cc1 (centres unmarked) [Compound 5]
MgrA [3]
  Alkylation percentage (Cys12 of MgrA): 48%

## c1ccc(CC2CO2)cc1 (centres unmarked) [Compound 6]
MgrA [3]
  Alkylation percentage (Cys12 of MgrA): 59%

## C=CS(=O)(=O)c1ccccc1 [Compound 7, phenyl vinyl sulfone]
norA gene
  Activation of norA gene: activated norA as efficient as H2O2
S. aureus Newman strain; 25 μM PVS, Newman strain
  Change of resistance to vancomycin: enhanced resistance to vancomycin

## OO [Compound H2O2, hydrogen peroxide]
MgrH1
  Oxidation of MgrH1 (Cys13): 4 equiv, 10 min, 71%
splB gene
  Activation of splB gene: activated
S. aureus Newman strain; 100 μM H2O2, Newman strain, plate sensitivity assay
  Change of resistance toward CIP and VCM: increased resistance
SarA
  Oxidation of SarA (Cys9): 15% oxidation at r.t.
MgrA [4]
  Oxidation of MgrA (Cys12): 4 equiv, 10 min, 65%

## CCn1cc(C(=O)O)c(=O)c2cc(F)c(N3CCNCC3)cc21 [NOR, norfloxacin]
[1]
  MIC: 0.7 µg/mL (≈ 2.19 µM)
[2]
  MIC: 1.4 µg/mL (≈ 4.38 µM)

## C[n+]1ccc(-c2cc[n+](C)cc2)cc1 [PQ, paraquat]
S. aureus Newman strain; 25 μM paraquat, Newman strain, 96-well-plate sensitivity assay
  Change of resistance toward CIP and VCM: increased antibiotic resistance

## CN[C@H](CC(C)C)C(=O)N[C@H]1C(=O)N[C@@H](CC(N)=O)C(=O)N[C@H]2C(=O)N[C@H]3C(=O)N[C@H](C(=O)N[C@H](C(=O)O)c4cc(O)cc(O)c4-c4cc3ccc4O)[C@H](O)c3ccc(c(Cl)c3)Oc3cc2cc(c3O[C@@H]2O[C@H](CO)[C@@H](O)[C@H](O)[C@H]2O[C@H]2C[C@](C)(N)[C@H](O)[C@H](C)O2)Oc2ccc(cc2Cl)[C@H]1O [VCM, vancomycin]
MgrA [5]
  Binding to MgrA: does not bind
[1]
  MIC: 1.2 µg/mL (≈ 0.828 µM)
[2]
  MIC: 2.4 µg/mL (≈ 1.66 µM)
